Columns and labels:
OVCAR-8 = assay: Antiproliferative activity against human OVCAR8 cells; type: functional, cell-based
hERG (KCNH2) = hERG (KCNH2) (Homo sapiens, UniProt Q12809); assay: Inhibition of ERG in human HEK293 cells at 3 uM at -80 mV holding potential by whole-cell patch clamp assay relative to control; type: cell-based; settings: HEK293 cells expressing ERG
[1] = Microsomal stability in mouse liver microsomes assessed as compound remaining at 100 ug/ml in presence of NADPH measured at 1.5 hrs by LC/MS analysis; type: ADME, Microsome; settings: read-out: Stability
[2] = Microsomal stability in monkey liver microsomes assessed as compound remaining at 100 ug/ml in presence of NADPH measured at 1.5 hrs by LC/MS analysis; type: ADME, Macaca mulatta, Microsome; settings: rhesus monkey, read-out: Stability
[3] = target: Serine/threonine-protein kinase AKT (Homo sapiens, UniProt P31751+Q9Y243+P31749); assay: Inhibition of Akt in human LNCaP cells assessed as reduction in PRAS40 phosphorylation at T246 residue after 1 hr by ELISA; type: cell-based
LNCaP = assay: Antiproliferative activity against human LNCAP cells; type: functional, cell-based
[4] = target: RAC-beta serine/threonine-protein kinase (Homo sapiens, UniProt P31751); assay: Inhibition of human Akt2 by mobile shift assay
[5] = target: RAC-gamma serine/threonine-protein kinase (Homo sapiens, UniProt Q9Y243); assay: Inhibition of Akt3 (unknown origin) by mobile shift assay
Sequence of RAC-gamma serine/threonine-protein kinase (Q9Y243 whole entry): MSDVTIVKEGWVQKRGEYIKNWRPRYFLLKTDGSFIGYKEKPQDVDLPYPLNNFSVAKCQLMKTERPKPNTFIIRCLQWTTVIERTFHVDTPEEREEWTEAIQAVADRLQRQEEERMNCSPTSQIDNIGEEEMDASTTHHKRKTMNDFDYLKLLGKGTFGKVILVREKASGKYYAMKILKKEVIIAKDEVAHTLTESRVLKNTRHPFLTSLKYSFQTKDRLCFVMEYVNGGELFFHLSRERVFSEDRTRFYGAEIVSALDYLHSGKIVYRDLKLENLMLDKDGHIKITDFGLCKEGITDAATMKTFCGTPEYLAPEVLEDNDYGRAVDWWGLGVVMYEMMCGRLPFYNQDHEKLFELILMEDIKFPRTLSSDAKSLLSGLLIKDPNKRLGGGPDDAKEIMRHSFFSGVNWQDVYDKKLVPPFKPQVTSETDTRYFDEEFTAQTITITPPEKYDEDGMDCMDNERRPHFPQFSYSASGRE

[6] = Inhibition of recombinant His-tagged human PKA expressed in Escherichia coli using Ser/Thr 01 as substrate after 1 hr by Z-lyte assay
[7] = target: Ribosomal protein S6 kinase beta-1 (Homo sapiens, UniProt P23443); assay: Inhibition of human P70S6K by mobility shift assay
Sequence of Ribosomal protein S6 kinase beta-1 (P23443 whole entry): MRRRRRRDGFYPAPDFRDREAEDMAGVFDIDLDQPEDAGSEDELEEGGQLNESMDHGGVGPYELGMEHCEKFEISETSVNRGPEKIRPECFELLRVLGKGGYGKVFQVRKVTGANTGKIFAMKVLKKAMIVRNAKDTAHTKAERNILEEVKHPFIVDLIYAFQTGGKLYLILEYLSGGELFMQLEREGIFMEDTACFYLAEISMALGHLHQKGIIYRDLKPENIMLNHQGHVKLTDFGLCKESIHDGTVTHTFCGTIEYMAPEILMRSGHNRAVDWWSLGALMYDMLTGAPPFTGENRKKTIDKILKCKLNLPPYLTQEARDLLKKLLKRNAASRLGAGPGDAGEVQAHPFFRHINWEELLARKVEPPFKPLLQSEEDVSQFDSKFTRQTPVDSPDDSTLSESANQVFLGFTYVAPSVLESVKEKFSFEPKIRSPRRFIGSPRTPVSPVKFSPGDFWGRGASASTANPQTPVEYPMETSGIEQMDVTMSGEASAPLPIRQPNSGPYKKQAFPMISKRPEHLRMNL

[8] = Tmax in ICR mouse at 40 mg/kg, ig measured up to 48 hrs by LC-MS/MS analysis; type: ADME, organism-based; settings: in vivo, po
[9] = Half-life in ICR mouse at 40 mg/kg, ig measured up to 48 hrs by LC-MS/MS analysis; type: ADME, organism-based; settings: in vivo, po
[10] = Cmax in ICR mouse at 40 mg/kg, ig measured up to 48 hrs by LC-MS/MS analysis; type: ADME, organism-based; parameters: dose 40 mg/kg, route […]; settings: in vivo, po
[11] = AUC (0 to t) in ICR mouse at 40 mg/kg, ig measured up to 48 hrs by LC-MS/MS analysis; type: ADME, organism-based; parameters: time < 48 hr, dose 40 mg/kg, route […]; settings: in vivo, po
[12] = AUC (0 to infinity) in ICR mouse at 40 mg/kg, ig measured up to 48 hrs by LC-MS/MS analysis; type: ADME, organism-based; parameters: dose 40 mg/kg, time infinity, route […]; settings: in vivo, po
[13] = MRT (0 to t) in ICR mouse at 40 mg/kg, ig measured up to 48 hrs by LC-MS/MS analysis; type: ADME, organism-based; settings: in vivo, po
[14] = MRT (0 to infinity) in ICR mouse at 40 mg/kg, ig measured up to 48 hrs by LC-MS/MS analysis; type: ADME, organism-based; settings: in vivo, po
[15] = Volume of distribution in ICR mouse at 40 mg/kg, ig measured up to 48 hrs by LC-MS/MS analysis; type: ADME, organism-based; settings: in vivo, po
[16] = AUC (0 to t) in Sprague-Dawley rat at 40 mg/kg, ig measured up to 24 hrs by LC-MS/MS analysis; type: ADME, organism-based; parameters: time < 24 hr, dose 40 mg/kg, route […]; settings: in vivo, po
[17] = AUC (0 to infinity) in Sprague-Dawley rat at 40 mg/kg, ig measured up to 24 hrs by LC-MS/MS analysis; type: ADME, organism-based; parameters: dose 40 mg/kg, route […], time infinity; settings: in vivo, po
[18] = Volume of distribution in Sprague-Dawley rat at 40 mg/kg, ig measured up to 24 hrs by LC-MS/MS analysis; type: ADME, organism-based; settings: in vivo, po
[19] = Oral bioavailability in ICR mouse at 40 mg/kg measured up to 48 hrs by LC-MS/MS analysis; type: ADME, organism-based; settings: in vivo
SK-OV-3 [20] = assay: Induction of apoptosis in human SKOV3 cells at 10 uM by FACS based flow cytometric analysis (reference value: 7.63%); type: functional
[21] = Toxicity in ICR mouse assessed as effect on body weight at 80 to 160 mg/kg, ig administered once daily for 7 days; type: organism-based; settings: in vivo, po, 168 h
[22] = Toxicity in ICR mouse assessed as effect on biochemical parameter at 80 to 160 mg/kg, ig; type: organism-based; settings: in vivo, po
SK-OV-3 [23] = assay: Antitumor activity against human SKOV3 cells xenografted in BALB/c nude mouse assessed as tumor growth inhibition at 40 mg/kg, po BID for 21 days; type: functional; settings: SK-OV-3, po, 504 h, read-out: TGI
SK-OV-3 [24] = assay: Antitumor activity against human SKOV3 cells xenografted in BALB/c nude mouse assessed as tumor growth inhibition at 60 mg/kg, po administered once daily for 21 days relative to control; type: functional; settings: SK-OV-3, po, 504 h, read-out: TGI
[25] = Toxicity in BALB/c nude mouse xenografted with human SKOV3 cells assessed as reduction in mouse survival at 40 mg/kg, po BID for 21 days; type: organism-based; settings: in vivo, 504 h
[26] = Drug level in tumor of human SKOV3 cells xenografted in BALB/c nude mouse at 50 mg/kg administered for 7 consecutive days; type: ADME, organism-based, Neoplasm; settings: in vivo
[27] = target: Cystic fibrosis transmembrane conductance regulator (Homo sapiens, UniProt P13569); assay: Inhibition of CFTR (unknown origin)
[28] = target: ATP-sensitive inward rectifier potassium channel 1 (Homo sapiens, UniProt P48048); assay: Inhibition of Kir1.1 (unknown origin) at 3 uM relative to control
[29] = target: Inward rectifier potassium channel 2 (Homo sapiens, UniProt P63252); assay: Inhibition of Kir2.1 (unknown origin) at 3 uM relative to control
[30] = target: Potassium voltage-gated channel subfamily A member 2 (Homo sapiens, UniProt P16389); assay: Inhibition of Kv1.2 (unknown origin) at 3 uM relative to control
Sequence of Potassium voltage-gated channel subfamily A member 2 (P16389 whole entry): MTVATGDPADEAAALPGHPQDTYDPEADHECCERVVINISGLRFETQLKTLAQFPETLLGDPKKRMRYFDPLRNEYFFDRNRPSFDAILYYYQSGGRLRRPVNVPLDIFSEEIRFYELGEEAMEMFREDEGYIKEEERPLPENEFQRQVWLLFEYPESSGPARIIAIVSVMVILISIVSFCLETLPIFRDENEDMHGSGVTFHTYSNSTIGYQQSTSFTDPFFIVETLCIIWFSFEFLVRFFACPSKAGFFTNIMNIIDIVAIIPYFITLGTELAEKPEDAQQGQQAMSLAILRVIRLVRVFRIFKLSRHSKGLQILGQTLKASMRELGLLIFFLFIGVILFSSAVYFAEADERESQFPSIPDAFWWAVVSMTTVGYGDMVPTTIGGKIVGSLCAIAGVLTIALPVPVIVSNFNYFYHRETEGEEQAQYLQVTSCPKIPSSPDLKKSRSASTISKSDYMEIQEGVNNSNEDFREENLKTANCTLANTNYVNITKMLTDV

[31] = target: Potassium voltage-gated channel subfamily A member 10 (Homo sapiens, UniProt Q16322); assay: Inhibition of Kv1.8 (unknown origin) at 3 uM relative to control
Sequence of Potassium voltage-gated channel subfamily A member 10 (Q16322 whole entry): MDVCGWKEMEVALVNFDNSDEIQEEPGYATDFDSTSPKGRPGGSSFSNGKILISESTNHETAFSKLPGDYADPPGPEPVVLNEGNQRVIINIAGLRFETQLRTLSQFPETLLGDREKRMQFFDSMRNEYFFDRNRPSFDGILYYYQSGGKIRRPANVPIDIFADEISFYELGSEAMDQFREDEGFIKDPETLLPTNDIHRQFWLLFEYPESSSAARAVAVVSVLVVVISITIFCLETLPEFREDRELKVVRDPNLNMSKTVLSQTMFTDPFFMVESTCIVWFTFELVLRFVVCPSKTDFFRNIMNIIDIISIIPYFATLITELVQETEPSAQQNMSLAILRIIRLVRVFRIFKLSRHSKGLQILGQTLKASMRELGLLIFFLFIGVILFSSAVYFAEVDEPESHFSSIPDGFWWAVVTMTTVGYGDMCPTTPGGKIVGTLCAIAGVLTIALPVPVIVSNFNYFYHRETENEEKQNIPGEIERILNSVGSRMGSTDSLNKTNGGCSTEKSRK

[32] = target: Potassium voltage-gated channel subfamily A member 6 (Homo sapiens, UniProt P17658); assay: Inhibition of Kv1.6 (unknown origin) at 3 uM relative to control
[33] = target: Potassium/sodium hyperpolarization-activated cyclic nucleotide-gated channel 1 (Homo sapiens, UniProt O60741); assay: Inhibition of HCN1 (unknown origin) at 3 uM relative to control
[34] = target: Potassium/sodium hyperpolarization-activated cyclic nucleotide-gated channel 4 (Homo sapiens, UniProt Q9Y3Q4); assay: Inhibition of HCN4 (unknown origin) at 3 uM relative to control
Sequence of Potassium/sodium hyperpolarization-activated cyclic nucleotide-gated channel 4 (Q9Y3Q4 whole entry): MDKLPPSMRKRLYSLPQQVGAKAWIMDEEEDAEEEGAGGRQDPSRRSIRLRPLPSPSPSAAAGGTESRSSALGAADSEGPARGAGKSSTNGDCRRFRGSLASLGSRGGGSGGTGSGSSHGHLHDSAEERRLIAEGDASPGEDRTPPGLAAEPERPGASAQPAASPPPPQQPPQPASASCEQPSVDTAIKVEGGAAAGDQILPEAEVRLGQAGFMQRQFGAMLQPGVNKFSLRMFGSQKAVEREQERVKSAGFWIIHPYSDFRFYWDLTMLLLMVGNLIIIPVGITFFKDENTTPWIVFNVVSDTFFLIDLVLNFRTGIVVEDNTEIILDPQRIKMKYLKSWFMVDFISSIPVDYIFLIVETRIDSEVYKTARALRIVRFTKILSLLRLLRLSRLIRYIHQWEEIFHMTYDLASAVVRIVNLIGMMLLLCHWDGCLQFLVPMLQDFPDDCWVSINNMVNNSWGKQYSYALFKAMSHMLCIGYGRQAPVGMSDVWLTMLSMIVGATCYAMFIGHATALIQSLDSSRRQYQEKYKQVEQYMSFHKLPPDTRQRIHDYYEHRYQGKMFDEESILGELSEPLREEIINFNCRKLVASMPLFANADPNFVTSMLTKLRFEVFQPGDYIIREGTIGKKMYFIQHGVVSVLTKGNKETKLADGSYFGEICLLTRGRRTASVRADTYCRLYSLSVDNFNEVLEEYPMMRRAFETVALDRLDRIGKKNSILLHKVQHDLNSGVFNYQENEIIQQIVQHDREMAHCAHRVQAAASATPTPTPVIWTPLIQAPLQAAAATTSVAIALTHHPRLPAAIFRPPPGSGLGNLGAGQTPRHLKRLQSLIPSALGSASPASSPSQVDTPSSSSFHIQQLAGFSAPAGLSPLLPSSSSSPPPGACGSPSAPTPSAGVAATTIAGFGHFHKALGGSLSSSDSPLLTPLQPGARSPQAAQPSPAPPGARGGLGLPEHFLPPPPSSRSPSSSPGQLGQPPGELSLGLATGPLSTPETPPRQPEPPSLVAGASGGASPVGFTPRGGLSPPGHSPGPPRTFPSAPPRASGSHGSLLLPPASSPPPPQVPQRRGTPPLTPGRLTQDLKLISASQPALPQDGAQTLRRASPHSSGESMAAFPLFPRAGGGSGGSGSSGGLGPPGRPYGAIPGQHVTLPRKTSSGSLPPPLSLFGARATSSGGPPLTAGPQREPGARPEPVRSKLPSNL

[35] = Toxicity in ICR mouse assessed as reduction in organ to brain weight ratio of thymus at 80 to 160 mg/kg, ig once daily for 7 days; type: organism-based; settings: in vivo, po, 168 h
[36] = Toxicity in BALB/c nude mouse xenografted with human SKOV3 cells assessed as effect on body weight at 40 mg/kg, po BID for 21 days; type: organism-based; settings: in vivo, 504 h
[37] = target: RAC-alpha serine/threonine-protein kinase (Homo sapiens, UniProt P31749)
Sequence of RAC-alpha serine/threonine-protein kinase (P31749 whole entry): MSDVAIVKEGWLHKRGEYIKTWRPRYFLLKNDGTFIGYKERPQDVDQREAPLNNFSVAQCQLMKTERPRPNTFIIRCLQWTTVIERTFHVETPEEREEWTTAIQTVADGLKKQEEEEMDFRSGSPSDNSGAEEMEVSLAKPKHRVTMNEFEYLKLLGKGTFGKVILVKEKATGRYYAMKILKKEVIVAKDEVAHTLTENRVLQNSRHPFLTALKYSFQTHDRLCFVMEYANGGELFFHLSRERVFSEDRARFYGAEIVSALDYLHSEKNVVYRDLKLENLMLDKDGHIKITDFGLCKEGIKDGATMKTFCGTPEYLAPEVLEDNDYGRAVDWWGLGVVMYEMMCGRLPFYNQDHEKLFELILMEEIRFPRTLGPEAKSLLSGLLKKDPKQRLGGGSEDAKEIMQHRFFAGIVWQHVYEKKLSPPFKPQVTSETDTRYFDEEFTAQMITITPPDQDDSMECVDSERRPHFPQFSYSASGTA
Description: Inhibition of human Akt1 expressed in Escherichia coli using STK Substrate 2-biotin as substrate incubated for 1 hr by HTRF assay

Sequence of hERG (KCNH2) (Q12809 whole entry): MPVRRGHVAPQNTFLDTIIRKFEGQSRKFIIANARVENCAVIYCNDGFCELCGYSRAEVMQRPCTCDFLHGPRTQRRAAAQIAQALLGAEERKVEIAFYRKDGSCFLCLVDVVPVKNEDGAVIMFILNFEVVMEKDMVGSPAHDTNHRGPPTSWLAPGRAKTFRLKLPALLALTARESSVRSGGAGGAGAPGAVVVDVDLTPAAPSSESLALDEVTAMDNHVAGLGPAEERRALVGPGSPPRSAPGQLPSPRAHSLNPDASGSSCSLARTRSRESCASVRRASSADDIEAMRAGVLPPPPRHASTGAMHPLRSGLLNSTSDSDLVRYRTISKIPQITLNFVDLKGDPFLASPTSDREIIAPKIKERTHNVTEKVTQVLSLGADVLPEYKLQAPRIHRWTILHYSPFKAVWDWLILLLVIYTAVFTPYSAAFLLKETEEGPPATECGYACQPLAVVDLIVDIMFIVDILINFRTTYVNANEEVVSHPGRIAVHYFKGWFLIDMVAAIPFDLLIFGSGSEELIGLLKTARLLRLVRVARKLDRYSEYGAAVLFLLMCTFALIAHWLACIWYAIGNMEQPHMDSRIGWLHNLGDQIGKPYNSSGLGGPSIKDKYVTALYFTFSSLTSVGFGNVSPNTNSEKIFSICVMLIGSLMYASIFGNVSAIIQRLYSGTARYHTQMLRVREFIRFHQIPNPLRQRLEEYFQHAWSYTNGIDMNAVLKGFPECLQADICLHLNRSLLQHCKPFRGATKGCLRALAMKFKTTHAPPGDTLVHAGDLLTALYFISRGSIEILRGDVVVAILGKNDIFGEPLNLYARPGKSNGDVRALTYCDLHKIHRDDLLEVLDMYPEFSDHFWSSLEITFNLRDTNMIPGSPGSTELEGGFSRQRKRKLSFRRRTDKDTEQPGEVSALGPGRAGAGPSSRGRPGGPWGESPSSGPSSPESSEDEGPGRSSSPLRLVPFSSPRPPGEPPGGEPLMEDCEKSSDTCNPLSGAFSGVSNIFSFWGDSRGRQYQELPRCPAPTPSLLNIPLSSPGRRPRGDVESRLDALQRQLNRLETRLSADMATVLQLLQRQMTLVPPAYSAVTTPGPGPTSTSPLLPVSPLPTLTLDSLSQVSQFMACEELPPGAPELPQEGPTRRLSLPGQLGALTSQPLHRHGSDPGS

## CNC(=O)C[C@@H]1C[C@@H](c2ccc(F)c(F)c2)[C@H](NC(=O)c2cc(-c3c(Cl)cnn3C)c(Cl)o2)CN1
OVCAR-8
  IC50: 800 nM
hERG (KCNH2)
  inhibition at 3 µM: 4%
[1]
  remaining at 1.5 h, 100 ug/ml: > 99%
[2]
  remaining at 1.5 h, 100 ug/ml: 84%
[3]
  IC50: 44 nM
LNCaP
  IC50: 50 nM
[4]
  IC50: 1.2 nM
[5]
  IC50: 1.7 nM
[6]
  IC50: 0.3 nM
[7]
  IC50: 8.9 nM
[8]
  Tmax: 1 h
[9]
  half-life: 3.3 h
[10]
  Cmax: 3620 ng/mL
[11]
  AUC(0-t) at 48 h: 21100 ng·h/mL
[12]
  AUC(0-inf): 21200 ng·h/mL
[13]
  MRT last at 48 h: 5.2 h
[14]
  MRT inf: 5.3 h
[15]
  Vd: 9 L/kg
[16]
  AUC(0-t) at 24 h: 2440 ng·h/mL
[17]
  AUC(0-inf): 3090 ng·h/mL
[18]
  Vd: 147.2 L/kg
[19]
  bioavailability: 48.4%
SK-OV-3 [20]
  Activity: 79.9%
[21]
  Activity: Non-Toxic
[22]
  Activity: Non-Toxic
SK-OV-3 [23]
  inhibition in vivo at 40 mg/kg: 82.5%
SK-OV-3 [24]
  inhibition in vivo at 60 mg/kg: 79.2%
[25]
  Activity: Non-Toxic
[26]
  Drug uptake: 560 ng/mL
[27]
  inhibition (INH): Not Active
[28]
  inhibition (INH): Not Active
[29]
  inhibition (INH): Not Active
[30]
  inhibition (INH): Not Active
[31]
  inhibition (INH): Not Active
[32]
  inhibition (INH): Not Active
[33]
  inhibition (INH): Not Active
[34]
  inhibition (INH): Not Active
[35]
  Activity: Toxic
[36]
  Activity: Non-Toxic
[37]
  IC50: 1.37 nM

— ChEMBL document CHEMBL4406807, “Discovery of 3,4,6-Trisubstituted Piperidine Derivatives as Orally Active, Low hERG Blocking Akt Inhibitors via Conformational Restriction and Structure-Based Design” (J Med Chem, 2019)
